In patent US20250313577A1, “TRICYCLIC PYRIDONES AND PYRIMIDONES” (ERASCA, INC, priority 2022, published 2025) one finds IC50 data, which are given here for two compounds.

pIC50: −log10 of the molar value.

In this assay the target is T1, KRAS G12C (Homo sapiens, UniProt P01116, G12C).
T1 construct: expressed in transfected cells; host or cells: Ras Initiative (RI) KRAS G12C cells
Put plainly: phospho-ERK HTRF assay in Ras Initiative (RI) KRAS G12C cells. The class given is cell-based. Conditions: phospho-ERK1/2 HTRF, 11-point dose response from 2,500 nM, treatment for either 4 hours or 16 hours, read-out: pERK (RI). The protocol:
Inhibition of KRAS G12C-Mediates Phospho-ERK1/2 Inhibition by Compounds of Formula I
This Example illustrates that various compounds of the present disclosure inhibit KRAS G12C thereby mediating the downstream inhibition of phospho-ERK1/2.
KRAS G12C mutant cell lines, NCI H358 (ATCC, CRL-5807), and Ras Initiative (R1) KRAS G12C were cultured according to published protocols and maintained at 37° C. in 5% CO2. The phospho-ERK HTRF assay was executed following provider's protocol (CisBio #64AERPEH). NCI-H358 or RI KRAS G12C cells were plated at a density of 50,000 cells per well in a 96-well plate (Corning #3903) in respective medias (for NCI-H358, RPMI+10% FBS+1% Pen/Strep, and for RI KRAS G12C, DMEM+10% FBS+1% Pen/Strep+4 ug/ml Blasticidin) and maintained at 37° C. in 5% CO2. Cells were allowed to adhere overnight and treated the following day with a Tecan D300e Digital Dispenser (Tecan Group Ltd., Switzerland) using an 11-point dose response starting at 2,500 nM of exemplified compounds followed by sequential 1:3 dilutions for either 4 hours or 16 hours. Following compound treatment, the cells were washed once with ice-cold PBS. Cells were lysed by adding 50 μl of lysis buffer (1×) supplemented with 1× Pierce Halt Protease and Phosphatase inhibitor and incubated for 30 minutes at 4° C. with shaking. After lysis, 16 μL of cell lysate from the 96-well cell-culture plate was transferred to a 384-well plate (Perkin Elmer #6007290). The premixed antibody solution was prepared by mixing (vol/vol) advanced phospho-ERK1/2 d2 antibody and advanced phospho-ERK1/2 Eu Cryptate antibody. The premixed antibody solution ([…]) was added to the detection plate containing cell lysate. The detection plate was incubated overnight at 4° C., the HTRF signal was read the next day by using either a Spectramax M5 or Spectramax i3 microplate reader (Molecular Devices, San Jose, CA, USA), and data was processed according to manufacturer's protocol.
Compounds prepared according to the preceding procedures and characterized for inhibition of p-ERK according to the protocol provided herein are summarized in Table 3: […]
(Time-resolved FRET reads energy transfer from a long-lived donor to a nearby acceptor.)

As to `C=CC(=O)N1[C@H](C)CN(c2nc(=O)n3c4c(c(-c5ccc(F)cc5)c(C(F)(F)F)cc24)SC[C@@H](c2cncc(F)c2)C3)C[C@@H]1C` [Example 126, (S)-8-((3S,5R)-4-acryloyl-3,5-dimethylpiperazin-1-yl)-11-(4-fluorophenyl)-3-(5-fluoropyridin-3-yl)-10-(trifluoromethyl)-3,4-dihydro-2H,6H-[1,4]thiazepino[2,3,4-ij]quinazolin-6-one], the pIC50 was 8.70 to 9.30.

For the compound “(3R,11S)-8-((3S,5R)-4-acryloyl-3,5-dimethylpiperazin-1-yl)-11-(5-chloro-2,4-difluorophenyl)-3-((S)-3,4-dihydropyridin-4-yl)-10-(trifluoromethyl)-3,4-dihydro-2H,6H-[1,4]thiazepino[2,3,4-ij]quinazolin-6-one [Example 101B]”, the pIC50 is 6.60 to 7.70.
